Data reported in article PMC8194028, “Engineering and characterization of human β-defensin-3 and its analogues and microcin J25 peptides against Mannheimia haemolytica and bovine neutrophils” (Veterinary Research, 2021).
Like-named read-outs stand apart in the source and are kept apart here. Positions of bridges follow the written chain, without caps; N, C: chain ends. No end group written: not given here.

How the values were obtained:
M. haemolytica = assay: Inhibition of visible growth (MIC assay, optical density method); type: cell-based, Mannheimia haemolytica; conditions: 10 000–25 000 bacteria/well; compared with control wells
Procedure: (§1) Wild-type HBD3, its analogues, and MccJ25 were tested against M. haemolytica-A1 using optical density method and colony count assay. Briefly, an aliquot (5 µL) from bacteria suspension stored at −80 °C was put in 5 mL BHI broth at 37 °C for 18 h. An aliquot (10 µL) from this overnight culture was added to fresh BHI broth and incubated at 37 °C for a further 5 h to obtain mid-log phase bacteria. The culture was then centrifuged for 10 min at 800 g at 4 °C. The supernatant was discarded and the bacterial pellet was resuspended in cold, sterile sodium phosphate buffer (SPB) and washed again at 800g for 10 min at 4 °C. The pellet was resuspended in 5 mL SPB. To calculate the number of CFU/mL in the 5 h culture, six successive tenfold dilutions were made. From the last dilution 100 µL was plated in duplicate on petri dishes containing BHI agar and incubated for 24 h. After 24 h the colonies were counted in the two petri dishes and then averaged. Total number of colonies was the average number of colonies multiplied by the dilution factor.
All assays were carried out in sterile 96-well polypropylene flat-bottomed plates using a broth microdilution method. Two-fold serial dilutions of peptide were made in SPB, and 50 µL of each concentration of peptide was added to the wells of the assay plate. […]

bovine neutrophils [1] = assay: Migration inhibition assay (neutrophil migration towards fMLP); type: cell-based, cattle; conditions: neutrophils with 50.0 μg/mL peptide in upper well; fMLP 114 nM in lower well; 20 min at 37 °C; three independent experiments
Procedure: (§2) Neutrophils were isolated from cattle using established methods and approved by the University of Saskatchewan’s Committee on Animal Care. For each individual animal, blood was pooled into 50 mL tubes and diluted with an equal volume of PBS then 12.5 mL of the diluted blood was layered over 10 mL of Ficoll Paque PLUS (Sigma-Aldrich, St. Louis, USA) while taking care to preserve the interface between the two liquids. Following centrifugation at 400 g for 30 min at 20 °C with the brake turned off, the lymphocyte layer was discarded along with Ficoll and plasma. The pellet was washed in 20 mL PBS with centrifugation at 500 g with low brake for 10 min. The supernatant was discarded and the pellet was suspended in equal volume of sterile water and gently mixed for 20 s followed by addition of equal volume of 1.8% NaCl to restore tonicity. The mixture was centrifuged at 500 g for 10 min and followed by another washing and centrifugation at 4 °C. The resulting neutrophil pellet was resuspended in PBS. Bovine neutrophils, collected in the above manner had more than 92% purity, and their viability was greater than 95% based on Trypan blue exclusion assay. Therefore, we use the term neutrophils in the manuscript.
Since peptides can be immunomodulatory, migration inhibition was carried out to determine if the peptides inhibit neutrophil migration. […]

[2] = test system: 28 species and 55 strains of Gram-positive cocci and Gram-negative fermentative and non-fermentative rods; parameters: method as in PMID 12709350; conditions: final bacterial inoculum 10^4 to 10^5/mL; cited from earlier work
bovine neutrophils [3] = assay: Chemotaxis assay, 48-well Boyden chamber; type: cell-based, cattle; conditions: peptide 50.0 μg/mL in lower well; 20 min at 37 °C; three independent experiments; ANOVA with Dunnett, P < 0.05
Procedure: as §2
We used fMLP ([…]) as the chemoattractant. […] The cells within the filter pores were then counted in five random fields under light microscope at 40×. […]

M. haemolytica-A1 = type: cell-based, Mannheimia haemolytica; conditions: for No. of CFU: final inoculum 5 × 10^5 cfu/mL, one of three experiments
Procedure: as §1
All assays were carried out in sterile 96-well polypropylene flat-bottomed plates using a broth microdilution method. Two-fold serial dilutions of peptide were made in SPB, and 50 µL of each concentration of peptide was added to the wells of the assay plate. […] Positive control wells contained 50 µL of the bacteria with 50 µL of 64 µg/mL ampicillin and negative control wells contained 50 µL of SPB and 50 µL bacterial suspension. Sterility control well contained 100 µL BHI broth to test and ensure that broth was not contaminated.
The plates were sealed with aluminum foil and were incubated at 37 °C for 2 h then 50 µL of the contents of the well were pipetted on BHI agar plates and incubated for 24 h. The bactericidal activity was expressed as the MBC which is the concentration at which 99.9% of the colonies are killed and the Lethal dose 50 (LD50) at which 50% or more bacteria are killed. All experiments were run in triplicates.
Peptides HBD3, its analogues and Mccj25 were assessed for Minimum bactericidal concentration (MBC). […] All the peptides have shown intermediate to potent killing activity towards M. haemolytica (Figures 2, 3). […] However, some published studies have taken final inoculum in the range of 10^4–10^5 cfu/mL [28].

CC1(C)S[C@@H]2[C@H](NC(=O)[C@H](N)c3ccccc3)C(=O)N2[C@H]1C(=O)O [Ampicillin]
Inhibition of visible growth of M. haemolytica (M. haemolytica): no growth

GIINTLQKYYCRVRGGRCAVLSCLPKEEQIGKCSTRGRKCCRRKK (disulfide 11-40, 18-33, 23-41 (inferred)) [HBD3, Human β-Defensin 3, reference compound]
Effect of peptide on neutrophil migration towards fMLP (bovine neutrophils [1]): none of the peptides inhibited migration
MBC, three strains out of 55 tested (intermediate susceptibility) [2]: 50.0 µg/mL
Chemotaxis of bovine neutrophils towards peptide (migrated neutrophils vs PBS) (bovine neutrophils [3]): chemotactic
LD50 (M. haemolytica-A1; 2 h): 6.3 µg/mL
MBC (M. haemolytica-A1; 2 h): 50.0 µg/mL
Sensitivity of M. haemolytica to the peptide (class by MBC) (M. haemolytica-A1; MBC assay, classification of ref 28): intermediately sensitive (as intermediately sensitive if MBC levels were 10–100 μg/mL)
No. of CFU (M. haemolytica-A1; peptide 0.8 μg/mL, well row A (duplicate 1)): >400 CFU
No. of CFU (M. haemolytica-A1; peptide 0.8 μg/mL, well row B (duplicate 2)): >400 CFU
No. of CFU (M. haemolytica-A1; peptide 1.6 μg/mL, well row A (duplicate 1)): >400 CFU
No. of CFU (M. haemolytica-A1; peptide 1.6 μg/mL, well row B (duplicate 2)): >400 CFU
No. of CFU (M. haemolytica-A1; peptide 3.1 μg/mL, well row A (duplicate 1)): >400 CFU
No. of CFU (M. haemolytica-A1; peptide 3.1 μg/mL, well row B (duplicate 2)): >400 CFU
No. of CFU (M. haemolytica-A1; peptide 6.3 μg/mL, well row A (duplicate 1)): 210 CFU
No. of CFU (M. haemolytica-A1; peptide 6.3 μg/mL, well row B (duplicate 2)): 390 CFU
No. of CFU (M. haemolytica-A1; peptide 12.5 μg/mL, well row A (duplicate 1)): 42 CFU
No. of CFU (M. haemolytica-A1; peptide 12.5 μg/mL, well row B (duplicate 2)): 101 CFU
No. of CFU (M. haemolytica-A1; peptide 25.0 μg/mL, well row A (duplicate 1)): 31 CFU
No. of CFU (M. haemolytica-A1; peptide 25.0 μg/mL, well row B (duplicate 2)): 9 CFU
No. of CFU (M. haemolytica-A1; peptide 50.0 μg/mL, well row A (duplicate 1)): 0 CFU
No. of CFU (M. haemolytica-A1; peptide 50.0 μg/mL, well row B (duplicate 2)): 0 CFU
No. of CFU (M. haemolytica-A1; peptide 100.0 μg/mL, well row A (duplicate 1), 2 h 37 °C, 50 μL plated, 24 h): 0 CFU
No. of CFU (M. haemolytica-A1; peptide 100.0 μg/mL, well row B (duplicate 2)): 0 CFU
